The values that follow come from ChEMBL document CHEMBL5365507, “New Horizons in Cancer Treatment: A Closer Look at Novel PI3Kα Inhibitors” (ACS Med Chem Lett, 2023).

For assay [1], the target named is T1, Phosphatidylinositol 4,5-bisphosphate 3-kinase catalytic subunit alpha isoform (Homo sapiens, UniProt P42336). The assay can be described thus: Inhibition of PIK3CA (unknown origin) using diC8-PIP2 as substrate preincubated for 30 mins followed by substrate addition and measured after 60 mins by ADP-Glo assay. In general terms: In ADP-Glo the light output rises with the ADP produced.
T1 sequence (P42336 whole entry, canonical isoform): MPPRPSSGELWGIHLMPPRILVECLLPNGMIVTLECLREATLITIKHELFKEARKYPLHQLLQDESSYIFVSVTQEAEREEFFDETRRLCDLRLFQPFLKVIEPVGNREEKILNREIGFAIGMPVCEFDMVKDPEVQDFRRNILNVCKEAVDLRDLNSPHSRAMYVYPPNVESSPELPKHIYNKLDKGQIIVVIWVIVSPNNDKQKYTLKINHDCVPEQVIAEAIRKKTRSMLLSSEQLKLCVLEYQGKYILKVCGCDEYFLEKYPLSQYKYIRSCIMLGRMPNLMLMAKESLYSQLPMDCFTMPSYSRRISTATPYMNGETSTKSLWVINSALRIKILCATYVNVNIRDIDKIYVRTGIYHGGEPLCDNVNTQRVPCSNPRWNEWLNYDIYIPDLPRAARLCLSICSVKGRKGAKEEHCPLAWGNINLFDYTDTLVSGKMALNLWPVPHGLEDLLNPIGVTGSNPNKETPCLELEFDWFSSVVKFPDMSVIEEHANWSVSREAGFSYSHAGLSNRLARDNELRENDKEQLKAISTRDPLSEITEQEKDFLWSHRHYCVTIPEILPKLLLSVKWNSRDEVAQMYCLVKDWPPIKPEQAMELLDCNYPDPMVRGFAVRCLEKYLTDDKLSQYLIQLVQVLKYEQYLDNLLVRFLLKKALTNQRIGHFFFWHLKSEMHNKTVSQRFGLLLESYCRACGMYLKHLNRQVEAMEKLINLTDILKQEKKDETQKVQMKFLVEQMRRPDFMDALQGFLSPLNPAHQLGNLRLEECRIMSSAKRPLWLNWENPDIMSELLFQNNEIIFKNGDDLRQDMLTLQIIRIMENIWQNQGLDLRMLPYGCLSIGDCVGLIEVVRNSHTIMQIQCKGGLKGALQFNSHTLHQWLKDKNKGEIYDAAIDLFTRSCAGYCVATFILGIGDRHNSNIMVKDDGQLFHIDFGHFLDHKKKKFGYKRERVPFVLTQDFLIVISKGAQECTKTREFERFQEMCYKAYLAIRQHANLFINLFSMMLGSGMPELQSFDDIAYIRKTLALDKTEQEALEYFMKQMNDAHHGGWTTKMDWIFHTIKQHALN

Assay [2] has as its target T1, Phosphatidylinositol 4,5-bisphosphate 3-kinase catalytic subunit alpha isoform. As to the kind of experiment: Inhibition of PIK3CA (unknown origin) expressed in MCF-10A cells incubated for 2 hrs by HTRF method. Format: cell-based. (In general: TR-FRET usually uses a lanthanide donor and a delayed reading to cut background.)

The structures appear in SMILES notation.

By IC50 is commonly meant the concentration needed to halve the response being measured. A lower IC50 goes with higher potency. Take `Cc1ccccc1Nc1ncc(C(=O)NC2CC(F)(F)C2)cc1NC(=O)c1cc(F)cc(C(F)(F)F)c1`: the half-maximal inhibitory concentration (IC50) was 100 nM in assay [1] and 1000 nM in assay [2].
For `Cc1ccccc1Nc1ncc(C(=O)NC2C[S+]([O-])C2)cc1NC(=O)c1csc2ccccc12` (centres undefined), the IC50 in assay [1] was ≤ 100 nM; in assay [2], 1000 nM.
Regarding `Cc1ccccc1Nc1ncc(C(=O)NCc2nccs2)cc1NC(=O)c1csc2ccccc12`, the IC50 in assay [1] was ≤ 100 nM; in assay [2], 5000 nM.
As to `Cc1ccccc1Nc1ncc(C(=O)Nc2ccncc2)cc1NC(=O)c1cc(F)cc(C(F)(F)F)c1`, the IC50 in assay [1] was 100 nM; in assay [2] it was ≤ 1000 nM.
For `Cc1ccccc1Nc1ncc(C(=O)NCc2ccc(Cl)cc2)cc1NC(=O)c1csc2ccccc12`, in that order: 100 nM and 1000 nM.
In the case of `Cc1ccccc1Nc1ncc(C(=O)NCC2CC(F)(F)C2)cc1NC(=O)c1cc(F)cc(C(F)(F)F)c1`, the IC50 came to 100 nM in assay [1] and 1000 nM in assay [2].
Take `Cc1ccccc1Nc1ncc(C(=O)NCc2ccnn2C)cc1NC(=O)c1cc(F)cc(C(F)(F)F)c1`: the IC50 in assay [1] is 100 nM; in assay [2], 1000 nM.
In the case of `Cc1ccccc1Nc1ncc(C(=O)NC2CS(=O)(=O)C2)cc1NC(=O)c1csc2ccccc12`, the IC50 in assay [1] is ≤ 100 nM; in assay [2], 1000 nM.
On to `Cc1ccccc1Nc1ncc(C(=O)NCc2ccn(C)n2)cc1NC(=O)c1cc(F)cc(C(F)(F)F)c1`, for which the IC50 in assay [1] was determined as 100 nM; in assay [2], 1000 nM.
For `Cc1ccccc1Nc1ncc(C(=O)NC2CS(=O)(=O)C2)cc1NC(=O)c1cc(F)cc(C(F)(F)F)c1`, in that order: ≤ 100 nM and ≤ 1000 nM.
On to `Cc1ccccc1Nc1ncc(C(=O)NCc2ccnn2C)cc1NC(=O)c1csc2ccccc12`, for which the IC50 in assay [1] was found to be 100 nM; in assay [2] it was 1000 nM.
For the molecule `Cc1ccccc1Nc1ncc(-c2cncc(C#N)c2)cc1NC(=O)c1cc(F)cc(C(F)(F)F)c1`, the values for the IC50 in assay [1] and in assay [2] were 100 nM and 1000 nM, respectively.
